In BindingDB's records for doi:10.1016/j.bmcl.2009.10.099 (Merck Research Laboratories, 2010):
pIC50: −log10 of the molar value.

Molecular target: Cholesteryl ester transfer protein (Homo sapiens) (UniProt P11597)
Assay: inhibition of human CETP assessed as cholesteryl ester transfer by fluorescence transfer assay

Cholesteryl ester transfer protein (Homo sapiens), sequence (P11597 whole entry, looked up): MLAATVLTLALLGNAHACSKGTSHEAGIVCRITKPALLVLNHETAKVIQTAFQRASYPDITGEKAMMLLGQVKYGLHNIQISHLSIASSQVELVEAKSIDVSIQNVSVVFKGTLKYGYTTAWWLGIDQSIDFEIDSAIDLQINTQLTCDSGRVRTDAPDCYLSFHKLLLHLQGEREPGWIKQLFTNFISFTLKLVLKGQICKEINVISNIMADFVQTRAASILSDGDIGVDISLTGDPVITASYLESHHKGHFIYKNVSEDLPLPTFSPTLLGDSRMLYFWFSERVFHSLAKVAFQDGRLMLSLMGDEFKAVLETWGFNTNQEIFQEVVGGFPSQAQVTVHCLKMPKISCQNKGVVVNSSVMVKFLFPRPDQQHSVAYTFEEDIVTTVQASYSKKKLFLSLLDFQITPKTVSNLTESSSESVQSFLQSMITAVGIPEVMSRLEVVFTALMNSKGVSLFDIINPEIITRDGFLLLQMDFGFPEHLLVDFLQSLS

Compound | pIC50
Cc1ccccc1OCC(=O)Nc1ccc(-c2nc3cc([N+](=O)[O-])ccc3o2)cc1 | 6.03
Cc1ccc2oc(-c3ccc(NC(=O)COc4ccccc4C)cc3)nc2c1 | 5.70
Cc1ccccc1OCC(=O)Nc1ccc(-c2nc3ccc(F)cc3o2)cc1 | 5.12
Cc1ccccc1OCC(=O)Nc1ccc(-c2nc3ccc([N+](=O)[O-])cc3o2)cc1 | 5.49
Cc1ccccc1OCC(=O)Nc1ccc(-c2nc3cc(C(C)O)ccc3o2)cc1 (configuration not stated) | 5.47
Cc1ccccc1OCC(=O)Nc1ccc(-c2nc3cc(Br)cc(F)c3o2)cc1 | 6.04
CC(=O)c1cc(C#N)cc2nc(-c3ccc(NC(=O)COc4ccccc4C)cc3)oc12 | 7.07
CC#CC(C)(O)c1cc(C#N)cc2nc(-c3ccc(NC(=O)COc4ccccc4C)cc3)oc12 (configuration not stated) | 6.80
Cc1ccccc1OCC(=O)Nc1ccc(-c2nc3c(C)c(Br)ccc3o2)cc1 | < 4.00
Cc1ccccc1OCC(=O)Nc1ccc(-c2nc3cccc(Cl)c3o2)cc1 | 4.68
Cc1cc2oc(-c3ccc(NC(=O)COc4ccccc4C)cc3)nc2cc1Cl | < 4.00
Cc1ccccc1OCC(=O)Nc1ccc(-c2nc3cc(Br)cc(C(C)(C)O)c3o2)cc1 | 7.36
